Measured values as given in patent US10077261B2, “Imidazolin-5-one derivative useful as FASN inhibitors for the treatment of cancer” (Janssen Pharmaceutica NV, priority 2012, dated 2018).
pIC50: −log10 of the molar value.

How the values were obtained:
[1] = target: T1, hFASN enzyme (full length) (Homo sapiens, UniProt P49327); assay: Fatty Acid Synthase (FASN) inhibition scintillation proximity assay; type: biochemical; details: for inhibition at 10 µM: read-out: Human FASN % inhibition @ 10 μM, 10 μM test compound; for IC50: read-out: Human FASN pIC50 (converted)
T1 construct: 10 μL hFASN enzyme (full length, 300 ng, purified in house); made in house
In short: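 Proximity read-out: hydrophobic ^3H-palmitate formed from ^3H-acetyl-CoA and malonyl-CoA binds streptavidin imaging beads, imaged at 610±20 nm at least 24 h after stopping. Enzyme was in-house purified full-length hFASN, 300 ng, in pH 7.5 phosphate/DTT buffer; compound series 30 μM down to 0.01 μM, normalized to controls, 4-parameter fit.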

[2] = system: A2780 ovarian cells; assay: A2780 ovarian cell proliferation assay in lipid reduced medium, with palmitate (MTT); type: cell-based; details: Homo sapiens, A2780, 96 h; read-out: pIC50 A2780 Ovarian Cell, With Palmitate (converted)
In short: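 In this palmitate-supplemented format, compound dilutions (30 μM down to 0.01 μM) are added to cells in lipid-reduced serum with 25 μM palmitate, 0.2% fatty-acid-free BSA and 0.25% ethanol. After four days (96 h) MTT absorbance at 544 nm is recorded and fitted by minimum sum of squares.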

[3] = system: A2780 ovarian cells; assay: A2780 ovarian cell proliferation assay in lipid reduced medium, without palmitate (MTT); type: cell-based; details: Homo sapiens, A2780, 96 h; read-out: pIC50 A2780 Ovarian Cell, Without Palmitate (converted)
[4] = target: Fatty Acid Synthase Keto-reductase Domain (FASN KR) (Homo sapiens, UniProt P49327); assay: Fatty Acid Synthase keto-reductase domain (FASN KR) inhibition, NADPH oxidation at 340 nm
Sequence of Fatty Acid Synthase Keto-reductase Domain (FASN KR) (P49327 whole entry, the tested form may be a part): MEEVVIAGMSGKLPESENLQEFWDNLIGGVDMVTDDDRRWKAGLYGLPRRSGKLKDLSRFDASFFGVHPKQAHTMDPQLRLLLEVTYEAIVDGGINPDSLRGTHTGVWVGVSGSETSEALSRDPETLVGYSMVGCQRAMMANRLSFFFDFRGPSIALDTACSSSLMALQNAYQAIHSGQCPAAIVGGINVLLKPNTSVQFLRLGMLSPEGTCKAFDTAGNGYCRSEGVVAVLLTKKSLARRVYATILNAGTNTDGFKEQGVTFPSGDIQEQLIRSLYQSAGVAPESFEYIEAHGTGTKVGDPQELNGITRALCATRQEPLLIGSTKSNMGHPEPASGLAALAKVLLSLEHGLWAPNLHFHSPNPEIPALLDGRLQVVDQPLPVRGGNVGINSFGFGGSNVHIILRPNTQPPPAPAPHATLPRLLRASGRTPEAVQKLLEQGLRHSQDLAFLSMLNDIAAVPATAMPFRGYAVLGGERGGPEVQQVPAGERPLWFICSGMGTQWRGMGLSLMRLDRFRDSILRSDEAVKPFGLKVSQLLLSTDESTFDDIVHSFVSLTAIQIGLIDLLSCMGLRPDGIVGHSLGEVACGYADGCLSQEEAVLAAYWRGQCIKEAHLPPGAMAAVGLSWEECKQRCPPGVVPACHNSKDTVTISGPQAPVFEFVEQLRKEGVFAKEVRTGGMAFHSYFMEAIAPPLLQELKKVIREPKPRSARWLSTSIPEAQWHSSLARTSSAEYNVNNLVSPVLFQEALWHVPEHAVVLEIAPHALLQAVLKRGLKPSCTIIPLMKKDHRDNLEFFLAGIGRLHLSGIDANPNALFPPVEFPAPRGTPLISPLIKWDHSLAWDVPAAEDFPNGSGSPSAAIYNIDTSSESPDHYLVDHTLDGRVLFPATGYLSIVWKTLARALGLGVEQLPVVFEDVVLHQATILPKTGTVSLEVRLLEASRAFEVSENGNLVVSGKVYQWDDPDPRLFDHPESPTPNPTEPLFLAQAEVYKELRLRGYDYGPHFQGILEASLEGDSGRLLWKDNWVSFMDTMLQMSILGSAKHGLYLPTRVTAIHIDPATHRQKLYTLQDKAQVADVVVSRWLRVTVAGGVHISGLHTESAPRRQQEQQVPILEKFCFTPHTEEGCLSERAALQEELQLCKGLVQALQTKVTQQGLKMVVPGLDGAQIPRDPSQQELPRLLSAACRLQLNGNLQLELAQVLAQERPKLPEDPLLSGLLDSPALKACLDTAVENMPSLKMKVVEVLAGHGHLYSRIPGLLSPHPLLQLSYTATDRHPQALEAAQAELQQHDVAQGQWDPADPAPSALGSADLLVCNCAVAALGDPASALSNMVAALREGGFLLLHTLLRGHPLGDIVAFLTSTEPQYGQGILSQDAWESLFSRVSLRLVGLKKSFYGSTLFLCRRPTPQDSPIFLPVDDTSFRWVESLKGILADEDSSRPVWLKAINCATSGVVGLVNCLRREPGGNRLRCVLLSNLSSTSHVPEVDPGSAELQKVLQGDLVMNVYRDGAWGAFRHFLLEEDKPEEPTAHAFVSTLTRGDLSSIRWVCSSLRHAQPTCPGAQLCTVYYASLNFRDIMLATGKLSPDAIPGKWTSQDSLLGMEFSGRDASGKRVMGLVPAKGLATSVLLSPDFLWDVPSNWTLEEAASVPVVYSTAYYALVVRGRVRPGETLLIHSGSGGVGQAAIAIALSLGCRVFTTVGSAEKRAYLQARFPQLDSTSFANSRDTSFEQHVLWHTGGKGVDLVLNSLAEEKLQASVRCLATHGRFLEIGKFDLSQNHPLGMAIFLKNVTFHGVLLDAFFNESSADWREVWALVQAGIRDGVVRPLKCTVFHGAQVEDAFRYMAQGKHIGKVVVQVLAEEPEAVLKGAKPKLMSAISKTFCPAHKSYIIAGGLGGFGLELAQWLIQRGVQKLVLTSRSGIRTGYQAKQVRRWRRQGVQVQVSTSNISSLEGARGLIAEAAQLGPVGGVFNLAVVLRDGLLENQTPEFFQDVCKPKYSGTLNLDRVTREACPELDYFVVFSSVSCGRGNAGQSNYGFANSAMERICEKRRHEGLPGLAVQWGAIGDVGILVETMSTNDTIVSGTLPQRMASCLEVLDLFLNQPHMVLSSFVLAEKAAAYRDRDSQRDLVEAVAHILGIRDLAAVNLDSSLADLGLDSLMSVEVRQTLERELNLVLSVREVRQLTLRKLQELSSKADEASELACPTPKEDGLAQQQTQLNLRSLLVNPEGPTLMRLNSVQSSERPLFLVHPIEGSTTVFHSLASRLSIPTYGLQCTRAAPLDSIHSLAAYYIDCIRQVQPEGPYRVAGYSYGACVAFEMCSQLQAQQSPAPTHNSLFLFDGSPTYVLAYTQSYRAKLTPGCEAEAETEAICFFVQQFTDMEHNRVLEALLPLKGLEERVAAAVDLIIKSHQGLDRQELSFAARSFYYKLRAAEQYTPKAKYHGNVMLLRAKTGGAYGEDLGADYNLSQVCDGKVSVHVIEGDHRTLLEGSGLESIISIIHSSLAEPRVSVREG
Experimental: After 20 minutes incubation at room temperature the plate was measured again (T2).
The decrease in absorbance was calculated as (Absorbance before incubation T1)−(Absorbance following incubation T2).
A plot of Controlmin versus test compound concentration was fitted to a 4-parameter logistic curve using a non-linear least squares regression method.

T1 sequence (P49327 whole entry): as the sequence (P49327 whole entry, the tested form may be a part) above

Row | Structure (SMILES) | inhibition at 10 µM [1] [%] | IC50 [1] [nM] | IC50 [2] [nM] | IC50 [3] [nM] | pIC50 [4]
1 | O=C(C1CC1)N1CCC(CN2C(=O)C3(CC3)N=C2c2ccc(-c3ccc4cnccc4c3)cc2)CC1 [compound 20, 6-{[1-(Cyclopropylcarbonyl)piperidin-4-yl]methyl}-5-(4-isoquinolin-6-ylphenyl)-4,6-diazaspiro[2.4]hept-4-en-7-one] | 101 | 158 | 8130 | 646 | 6.17
2 | Cc1cc2cc(-c3ccc(C4=NC5(CC5)C(=O)N4CC4CN(C(=O)C5CC5)C4)c(C)c3)ccc2o1 [compound 289, 6-((1-(cyclopropanecarbonyl)azetidin-3-yl)methyl)-5-(2-methyl-4-(2-methylbenzofuran-5-yl)phenyl)-4,6-diazspiro[2.4]hept-4-en-7-one] | 102 | 97.7 | > 10000 | 1120 | 6.49
3 | COCCN1CCC2(CC1)N=C(c1ccc(-c3ccc4[nH]ccc4c3)cc1)N(CC1CN(C(=O)C3CC3)C1)C2=O [compound 755, 3-{[1-(Cyclopropylcarbonyl)azetidin-3-yl]methyl}-2-[4-(1H-indol-5-yl)phenyl]-8-triazaspiro[4.5]dec-1-en-4-one] | 107 | 229 | > 6170 | ~316 | 6.20
4 | O=C(C1CC1)N1CC[C@@H](CN2C(=O)C3(CC3)N=C2c2ccc(-c3nc4ccccc4[nH]3)cc2F)C1 [compound 538, 5-[4-(1H-Benzimidazol-2-yl)-2-fluorophenyl]-6-{[(3R)-1-(cyclopropylcarbonyl)pyrrolidin-3-yl]methyl}-4,6-diazaspiro[2.4]hept-4-en-7-one] | 99 | 170 | ~10000 | 132 | 6.48
5 | N#Cc1ccc(-c2ccc(C3=NC4(CC4)C(=O)N3CC3CN(C(=O)C4CC4)C3)cc2)cc1 [compound 41, 4′-(6-{[1-(Cyclopropylcarbonyl)azetidin-3-yl]methyl}-7-oxo-4,6-diazaspiro[2.4]hept-4-en-5-yl)biphenyl-4-carbonitrile] | 92.6 | 457 | > 10000 | 1200 | 6.07
6 | Cc1cc2cc(-c3ccc(C4=NC5(CC5)C(=O)N4C[C@@H]4CCN(C(=O)C5CC5)C4)cc3F)ccc2o1 [compound 387, 6-{[(3R)-1-(Cyclopropylcarbonyl)pyrrolidin-3-yl]methyl}-5-[3-fluoro-4-(2-methyl-1-benzofuran-5-yl)phenyl]-4,6-diazaspiro[2.4]hept-4-en-7-one] | 103 | 219 | > 10000 | ~3240 | 6.12
7 | Cn1ncc2ccc(-c3ccc(C4=NC5(CC5)C(=O)N4CC4CN(C(=O)C5CC5)C4)cc3)cc21 [compound 38, 6-{[1-(Cyclopropylcarbonyl)azetidin-3-yl]methyl}-5-[4-(1-methyl-1H-indazol-6-yl)phenyl]-4,6-diazaspiro[2.4]hept-4-en-7-one] | 94.9 | 269 | > 10000 | 1200 | 6.19
8 | O=C(C1CC1)N1CC(CN2C(=O)C3(CC3)N=C2c2ccc(-c3ccc4[nH]ncc4c3)cc2)C1 [compound 51, 6-{[1-(Cyclopropylcarbonyl)azetidin-3-yl]methyl}-5-[4-(1H-indazol-5-yl)phenyl]-4,6-diazaspiro[2.4]hept-4-en-7-one] | 102 | 79.4 | > 10000 | 123 | 6.79
9 | Cc1cc(-c2ccc(Cl)cc2Cl)ccc1C1=NC2(CCCC2)C(=O)N1C[C@@H]1CCN(C(=O)C2CC2)C1 [compound 94, 3-{[(3R)-1-(Cyclopropylcarbonyl)pyrrolidin-3-yl]methyl}-2-(2′,4′-dichloro-3-methylbiphenyl-4-yl)-1,3-diazaspiro[4.4]non-1-en-4-one] | 111 | 145 | > 10000 | ~2140 | 6.05

Continued, values first:

Row | inhibition at 10 µM [1] [%] | IC50 [1] [nM] | IC50 [2] [nM] | IC50 [3] [nM] | pIC50 [4] | Structure (SMILES)
10 | 97.9 | 355 | > 10000 | ~2880 | 5.69 | COc1ccc(-c2ccc(C3=NC4(CCCC4)C(=O)N3C[C@@H]3CCN(C(=O)C4CC4)C3)cc2)cc1 [compound 85, 3-{[(3R)-1-(Cyclopropylcarbonyl)pyrrolidin-3-yl]methyl}-2-(4′-methoxybiphenyl-4-yl)-1,3-diazaspiro[4.4]non-1-en-4-one]
11 | 104 | 100 | > 10000 | 955 | 6.30 | O=C(C1CC1)N1CC[C@@H](CN2C(=O)C3(CC3)N=C2c2ccc(-c3ccc(F)cc3)cc2)C1 [compound 105, 6-{[(3R)-1-(Cyclopropylcarbonyl)pyrrolidin-3-yl]methyl}-5-(4′-fluorobiphenyl-4-yl)-4,6-diazaspiro[2.4]hept-4-en-7-one]
12 | 113 | 30.2 | > 10000 | ~61.7 | 6.91 | O=C(C1CC1)N1CC[C@@H](CN2C(=O)C3(CC3)N=C2c2ccc(-c3cccc(O)c3)cc2)C1 [compound 115, 6-{[(3R)-1-(Cyclopropylcarbonyl)pyrrolidin-3-yl]methyl}-5-(3′-hydroxybiphenyl-4-yl)-4,6-diazaspiro[2.4]hept-4-en-7-one]
13 | 108 | 57.5 | > 10000 | 380 | 6.55 | O=C(C1CC1)N1CC[C@@H](CN2C(=O)C3(CC3)N=C2c2ccc(-c3ccc4ccncc4c3)cc2)C1 [compound 30, 6-{[(3R)-1-(Cyclopropylcarbonyl)pyrrolidin-3-yl]methyl}-5-(4-isoquinolin-7-ylphenyl)-4,6-diazaspiro[2.4]hept-4-en-7-one]
14 | 99.2 | 129 | > 10000 | 513 | 6.10 | O=C(C1CC1)N1CCC(CN2C(=O)C3(CCCC3)N=C2c2ccc(-c3ccc4[nH]ccc4c3)cc2)CC1 [compound 76, 3-{[1-(Cyclopropylcarbonyl)piperidin-4-yl]methyl}-2-[4-(1H-indol-5-yl)phenyl]-1,3-diazaspiro[4.4]non-1-en-4-one]
15 | 109 | 67.6 | > 10000 | 851 | 6.50 | COc1ccc(-c2ccc(C3=NC4(CC4)C(=O)N3C[C@@H]3CCN(C(=O)C4CC4)C3)cc2)cc1 [compound 103, 6-{[(3R)-1-(Cyclopropylcarbonyl)pyrrolidin-3-yl]methyl}-5-(4′-methoxybiphenyl-4-yl)-4,6-diazaspiro[2.4]hept-4-en-7-one]
16 | 107 | 21.9 | > 10000 | 28.8 | 7.45 | O=C(C1CC1)N1CC[C@@H](CN2C(=O)C3(CC3)N=C2c2ccc(-c3ccc4[nH]ccc4c3)cc2)C1 [compound 31, 6-{[(3R)-1-(Cyclopropylcarbonyl)pyrrolidin-3-yl]methyl}-5-[4-(1H-indol-5-yl)phenyl]-4,6-diazaspiro[2.4]hept-4-en-7-one]
17 | 92.1 | 437 | > 10000 | 2290 | 5.83 | O=C(C1CC1)N1CC(CN2C(=O)C3(CCCC3)N=C2c2ccc(-c3ccc4occc4c3)cc2)C1 [compound 80, 2-[4-(1-Benzofuran-5-yl)phenyl]-3-{[1-(cyclopropylcarbonyl)azetidin-3-yl]methyl}-1,3-diazaspiro[4.4]non-1-en-4-one]
18 | 103 | 89.1 | > 10000 | 52.5 | 6.77 | O=C(C1CC1)N1CC[C@H](CN2C(=O)C3(CC3)N=C2c2ccc(-c3ccc4[nH]ccc4c3)cc2)C1 [compound 210, (S)-5-(4-(1H-indol-5-yl)phenyl)-6-((1-(cy7clopropanecarbonyl)pyrrolidin-3-yl)methyl)-4,6-diazaspiro[2.4]hept-4-en-7-one]
19 | 113 | 36.3 | > 10000 | ~93.3 | 7.22 | O=C(N1CC[C@@H](CN2C(=O)C3(CCCC3)N=C2c2ccc(-c3ccc4occc4c3)cc2)C1)C1(O)CC1 [compound 878, (R)-2-(4-(benzofuran-5-yl)phenyl)-3-((1-(1-hydroxycyclopropanecarbonyl)pyrrolidin-3-yl)methyl)-1,3-diazaspiro[4.4]non-1-en-4-one]
